Assay results taken from PMC12481576, “Barbituric Acid Derivatives as Covalent Inhibitors of Leishmania braziliensis Dihydroorotate Dehydrogenase” (Journal of Medicinal Chemistry, 2025).
Converted amounts (≈) assume the structure as drawn.

Tests used:
[1] = tested on: Leishmania braziliensis promastigotes; test: Leishmanicidal activity, promastigote growth (SYBR Green, 72 h); assay type: cell-based, Leishmania (V.) braziliensis (MHOM/BR/1975/M2904); settings: L. braziliensis promastigotes, max 200 μM
Summary of the method: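 Cultures at 4 × 10^6 parasites/mL were exposed 72 h to serially decreasing compound levels, top 200 μM, with final DMSO 0.5% and medium-only control.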

[2] = Kinetic solubility assay in PBS pH 7.4; assay type: physicochemical; settings: kinetic from dmso stock, 1% DMSO; for solubility kinetic at 2 h: 25 °C, pH 7.4, aqueous buffer, PBS pH 7.4, 200 μM test conc, 2 h at 25 °C; for solubility at 2 h: aqueous buffer, PBS pH 7.4, 200 µM, 2 hours at 25°C
Protocol: The plate was incubated for 2 h at 25 °C. The precipitates on the incubation plate were removed by filtration and the filtrates were quantified by LC-MS/MS. Calibration curves were prepared for each compound by using 5–6 points. Samples were analyzed by UV–vis.

LbDHODH = LbDHODH (Leishmania braziliensis, UniProt E9AI53); test: Kinact/KI determination from LbDHODH progress curves (kobs vs inhibitor concentration); assay type: biochemical; settings: for kinact/KI: slope of kobs vs inhibitor concentration
Sequence of LbDHODH (E9AI53 entry or part of it): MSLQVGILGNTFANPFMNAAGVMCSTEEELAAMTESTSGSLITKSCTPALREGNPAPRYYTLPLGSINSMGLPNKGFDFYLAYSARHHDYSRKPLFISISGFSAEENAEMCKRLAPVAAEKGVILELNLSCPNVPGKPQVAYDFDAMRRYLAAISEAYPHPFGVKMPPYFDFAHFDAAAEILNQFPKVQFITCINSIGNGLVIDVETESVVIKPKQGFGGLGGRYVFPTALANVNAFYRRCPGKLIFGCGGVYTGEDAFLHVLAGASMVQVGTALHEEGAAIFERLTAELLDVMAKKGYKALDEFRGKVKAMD
Description: The Kinact/Ki ratio is a key parameter for evaluating the potency of covalent inhibitors, as it quantitatively measures both their reactivity and affinity for the target enzyme. This parameter integrates two crucial aspects: KI, which reflects the inhibitor’s binding affinity, and Kinact, which describes the rate at which the covalent bond is formed. […] Therefore, this ratio is essential for ranking covalent inhibitors, optimizing their potency, and guiding structure-based drug design.
The experiments were performed in a 96-well microplate reader (SpectraMax Plus 384, Molecular Devices, USA), containing the […] of the buffer 60 mM DCIP, 50 mM Tris pH 8.15, 150 mM KCl, 0.1% Triton X-100, 50 μM DHO and 10 μM of LbDHODH at 165 nM. The reaction was monitored every 3 s at 610 nm over a period of 60 s, in triplicate, for the control and each concentration of the inhibitor. All assays were performed without incubation (0h) and with 4-h preincubation of the inhibitor with LbDHODH, using 5% DMSO (v/v) as control. […] To determine the IC50 values, the activity percentage data were fitted as a function of the concentration logarithm by nonlinear regression analysis (variable hillslope) using Prism 9.0 software (GraphPad Software, USA). […] The resulting kobs values were plotted as a function of inhibitor concentration, and the data in the initial linear region was fit to determine the slope, which is kinact/KI. All regressions were performed with GraphPad Prism 9.

THP-1 cells = test: Cell viability / cytotoxicity assay (PrestoBlue, 72 h); assay type: cell-based; settings: THP-1 cell line, 72 h, max 200 μM
Summary of the method: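 Viability was measured with PrestoBlue fluorescence (560/590 nm, 2 h) after 72 h compound exposure at 37 °C. Test concentrations descended from 200 μM. The THP-1 monocytes had first been differentiated with 150 ng/mL phorbol myristate acetate for 48 h, then rested 24 h.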

Row | Compound | EC50 ([1]; Leishmania braziliensis) [µM] | solubility kinetic at 2 h [2] [µM] | solubility at 2 h [2] [µg/mL] | EC50 [1] [µM] | Kobs (LbDHODH; inhibitor 0.0975 µM) [s⁻¹] | Kobs (LbDHODH; inhibitor 0.195 µM) [s⁻¹] | Kobs (LbDHODH; inhibitor 0.390625 µM) [s⁻¹] | Kobs (LbDHODH; inhibitor 0.78125 µM) [s⁻¹] | Kobs (LbDHODH; inhibitor 1.5625 µM) [s⁻¹] | Kobs (LbDHODH; inhibitor 3.125 µM) [s⁻¹] | Kobs (LbDHODH; inhibitor 6.25 µM) [s⁻¹] | Kobs (LbDHODH; inhibitor 12.5 µM) [s⁻¹] | Kobs (LbDHODH; inhibitor 25 µM) [s⁻¹] | kinact/KI (LbDHODH) [M⁻¹ s⁻¹] | CC50 (THP-1 cells) | Kobs (LbDHODH; inhibitor 0.18 µM) [s⁻¹] | Kobs (LbDHODH; inhibitor 100 µM) [s⁻¹] | Kobs (LbDHODH; inhibitor 200 µM) [s⁻¹]
1 | COc1cc(C=C2C(=O)NC(=O)NC2=O)ccc1O [2c, 5-(4-Hydroxy-3-methoxybenzylidene)pyrimidine-2,4,6(1H,3H,5H)-trione] | > 200 | 195 (≈ 51 µg/mL) | 51 (≈ 194 µM) | – | – | – | – | – | – | – | – | – | – | – | – | – | – | –
2 | O=C1NC(=O)C(=Cc2ccc(-c3ccccc3F)[nH]2)C(=O)N1 [2h, 5-((5-(2-Fluorophenyl)-1H-pyrrol-2-yl)methylene)pyrimidine-2,4,6(1H,3H,5H)-trione] | 5.4 to 23 | 4.63 (≈ 1.39 µg/mL) | 1.6 (≈ 5.35 µM) | 5 ± 2 | – | – | – | – | – | – | – | – | – | – | – | – | – | –
3 | O=C1NC(=O)C(=C/C=C/c2ccccc2)C(=O)N1 [2i, (E)-5-(3-Phenylallylidene)pyrimidine-2,4,6(1H,3H,5H)-trione] | 11 ± 5 | 41.4 (≈ 10 µg/mL) | 10 (≈ 41.3 µM) | 10.5 ± 3.5 | 0.002849 ± 0.002 | 0.002994 ± 0.002 | 0.003028 ± 0.002 | 0.003309 ± 0.002 | 0.003849 ± 0.002 | 0.005668 ± 0.003 | 0.007929 ± 0.002 | 0.02055 ± 0.002 | 0.0045 ± 0.002 | 767 | no cytotoxicity | – | – | –
4 | O=C1NC(=O)C(=Cc2ccc(O)c([N+](=O)[O-])c2)C(=O)N1 [2d, 5-(4-Hydroxy-3-nitrobenzylidene)pyrimidine-2,4,6(1H,3H,5H)-trione] | 152 ± 28 | 190 (≈ 52.7 µg/mL) | 52.7 (≈ 190 µM) | – | – | – | 0.003416 ± 0.002 | 0.003424 ± 0.002 | 0.003613 ± 0.002 | 0.0038 ± 0.002 | 0.004522 ± 0.002 | 0.004748 ± 0.002 | 0.005571 ± 0.002 | 73 | – | 0.003357 ± 0.002 | 0.01122 ± 0.001 | 0.01796 ± 0.003
5 | O=C1NC(=O)C(=Cc2ccc(N3CCOCC3)cc2[N+](=O)[O-])C(=O)N1 [2e, 5-(4-Morpholino-2-nitrobenzylidene)pyrimidine-2,4,6(1H,3H,5H)-trione] | 17 ± 11 | 178 (≈ 61.8 µg/mL) | 53.4 (≈ 154 µM) | – | – | – | – | – | – | – | – | – | – | – | – | – | – | –
